Experimental data reported in patent US8735152B2, “Methods for inducing cell death in pluripotent stem cells and differentiated cells other than cardiac myocytes” (Daiichi Sankyo Company, Limited, priority 2009, dated 2014).

Assays:
[1] = test system: mouse embryonic stem cells; experiment: Cell death inducing effect of low-concentration mannitol on mouse embryonic stem cells (adhesion, morphology); assay type: cell-based; details: 0.2 M
Experimental: Embryonic stem cells as cultured by the method described in Example 1 were cultured for an additional 48 or 72 hours in an α-MEM culture medium containing 0.2 M mannitol (approximately equivalent to 480 mOsm/kg); thereafter, the stem cells were checked for the state of their survival in terms of cell adhesion or non-adhesion and by morphological observation; the results are shown in FIG. 15.

[2] = Saccharide concentration and osmotic pressure of hypertonic solutions (measured values); assay type: physicochemical
Experimental: When the hypertonic solution having an osmotic pressure of 370 mOsm/kg or higher is prepared by adding a saccharide to the culture medium, the method of the present invention is characterized in that the hypertonic solution contains the saccharide in 0.1-1 M (mol/L), preferably 0.1-0.6 M (mol/L). The relation between the concentration of saccharide (mol/L) and the osmotic pressure (mOsm/kg) can be approximated by a substantially straight line; a hypertonic solution containing 0.1 M saccharide corresponds to one having an osmotic pressure of approximately 370 mOsm/kg and a hypertonic solution containing 1 M saccharide corresponds to one having an osmotic pressure of approximately 1300-1600 mOsm/kg.
Hypertonic solutions were prepared using various saccharides and the relation between the saccharide concentration and the osmotic pressure is shown in the following table for typical saccharides.

Q: For `OC[C@@H](O)[C@@H](O)[C@H](O)[C@H](O)CO` [mannitol], which “State of survival (cell adhesion, morphology)” value ([1]; 48 hours) is on record?
A: The value was “almost all colonies had already detached from the culture dish”.

Q: What about the “State of survival (cell adhesion, morphology)” value ([1]; 72 hours) of the same molecule?
A: The value was “the cells were completely dead”.

Q: What about the Osmotic pressure ([2]; saccharide concentration 0.2 M in culture medium) of the same molecule?
A: The Osmotic pressure was about 480 mOsm/kg.

Q: What about the Osmotic pressure ([2]; saccharide concentration 0.45 M in culture medium) of the same molecule?
A: The Osmotic pressure was about 720 mOsm/kg.

Q: And the Osmotic pressure ([2]; saccharide concentration 0.45 M in culture medium, listed as Mannitol)?
A: The Osmotic pressure was 717 mOsm/kg.

Q: And the Osmotic pressure ([2]; saccharide concentration 0.6 M in culture medium)?
A: The Osmotic pressure was 875 mOsm/kg.

Q: What about the Osmotic pressure ([2]; saccharide concentration 0.9 M in culture medium) of the same molecule?
A: The Osmotic pressure was 1234 mOsm/kg.
